# Test results: patent publication US20150173371A1 (Dow AgroSciences LLC, priority 2013, published 2015)
# Values joined by “and” are separate entries in the source; they are usually repeats but may differ in a detail not shown here. Equal entries are not always repeated. Where two headings read alike, the source gives them in different places.
# Legend:
# [1] = tested on: Elymus repens (quackgrass, AGRRE); assay: Greenhouse trial, % visual weed control; assay type: in vivo; details: 14DAA, 200 g ae/ha alone
# Experimental: (§1) Greenhouse trials were conducted under controlled environment greenhouse conditions, with plants grown in pots with Metromix soil and bottom watered. Treatments were applied with 3 replicates per treatment, using a track sprayer with 2 flat fan nozzles at 40 pounds per square inch (PSI). Water was used as the diluent at 140 liters per hectare (L/ha), with weeds being 2-4 leaf stage and approximately 3 inches in height at treatment.
# [2] = tested on: Chenopodium album (common lambsquarter, CHEAL); assay: Greenhouse trial, % visual weed control; assay type: in vivo; details: 14DAA
# Experimental: as §1
# [3] = tested on: Ambrosia artemisiifolia (common ragweed, AMBEL); assay: Greenhouse trial, % visual weed control; assay type: in vivo; details: 14DAA, 100 g ae/ha alone
# Experimental: as §1
# [4] = tested on: Abutilon theophrasti (velvetleaf, ABUTH); assay: Greenhouse trial, % visual weed control; assay type: in vivo; details: 14DAA
# Experimental: as §1
# [5] = tested on: Conyza canadensis (horseweed, ERICA); details: field trial
# Experimental: (§2) Field trials were conducted under normal field conditions in multiple states in the United States, including but not limited to Alabama, Mississipi, South Carolina and Tennessee; and in Brazil, including but not limited to the states of Goias, Mato Grosso, Parana, Rio Grande do Sul, and Sao Paulo. Trials were established as RCB (randomized complete block) design, with 3-4 replicates per treatment, and plot sizes varying from 2-3 meters (m) wide by 4-8 m long. Treatments were applied with small plot backpack sprayers, using pressurized carbon dioxide (CO2) as propellant. Pressure varied from 22-40 PSI, with spray tips typically of a Flat Fan type applying water diluent at 150 L/ha. Boom sizes varied from 2-3 m in width. Treatments were applied to soybean, cotton or fallow crop land. Weed sizes varied, but all treatments were applied as post-emergence treatments to weeds from 2 leaf to 2 tiller growth stages varying from 2-15 inches (in) in height. No additional adjuvant was mixed with the treatments applied in the field
# (§3) The treated plots and control plots were rated blind at various intervals after application.
# (§4) Colby's equation was used to determine the herbicidal effects expected from the mixtures (Colby, S. R. Calculation of the synergistic and antagonistic response of herbicide combinations. Weeds 1967 15, 20-22). A t-test (alpha=0.05) between Colby predictions and observed combinations was used to test for significant differences indicating synergy or antagonism.
# (§5) The following equation was used to calculate the expected activity of mixtures containing two active ingredients, A and B:
# (§6) Expected=A+B−(A×B/100) • A=observed efficacy of active ingredient A at the same concentration as used in the mixture; • B=observed efficacy of active ingredient B at the same concentration as used in the mixture.
# [6] = tested on: Ipomoea quamoclit (cypress vine morningglory, IPOQU); details: 7DAA, field trial, 1065 g ae/ha alone
# Experimental: as §2, §3, §4, §5, §6
# [7] = tested on: Conyza bonariensis (hairy fleabane, ERIBO); details: field trial
# Experimental: as §2, §3, §4, §5, §6
# [8] = tested on: Tridax procumbens L (tridax daisy, TRQPR); assay: Field trial, % visual weed control; assay type: in vivo; details: 16DAA, 780 g ae/ha alone
# Description: (§7) Boom sizes varied from 2-3 m in width.
# [9] = tested on: Ipomoea grandifolia (Corda-de-viola, IAQGR); assay: Field trial, % visual weed control; assay type: in vivo; details: 17DAA, 780 g ae/ha alone
# Description: as §7
# [10] = tested on: Brachiaria decumbens (Surinam grass, BRADC); assay: Field trial, % visual weed control; assay type: in vivo; details: 12DAA, 684 g ae/ha alone
# Description: as §7
# [11] = tested on: Raphanus raphanistrim (wild radish, RAPRA); assay: Field trial, % visual weed control; assay type: in vivo; details: 6DAA, 780 g ae/ha alone
# Description: as §7
# [12] = tested on: Euphorbia heterophylla (wild poinsettia, EPHHL); assay: Field trial, % visual weed control; assay type: in vivo; details: 28DAA, 585 g ae/ha alone
# Description: as §7
# [13] = tested on: Spermacoce latifolia (broadleaf buttonweed, BOILF); assay: Field trial, % visual weed control; assay type: in vivo
# Description: as §7
# [14] = tested on: Ipomoea species (morningglory, IPOSS); assay: Field trial, % visual weed control; assay type: in vivo; details: 8DAA, 800 g ae/ha alone
# Description: as §7
# [15] = tested on: Commelina benghalensis (hairy wandering Jew, COMBE); assay: Field trial, % visual weed control; assay type: in vivo; details: 780 g ae/ha alone
# Description: as §7
# [16] = tested on: Jacquemontia tamnifolia (smallflower morningglory, IAQTA); assay: Field trial, % visual weed control; assay type: in vivo; details: 7DAA, 1065 g ae/ha alone
# Description: as §7
# [17] = tested on: Euphorbia hirta (garden spurge, EPHHI); assay: Field trial, % visual weed control; assay type: in vivo
# Description: as §7
# [18] = tested on: Amaranthus palmeri (Palmer pigweed, AMAPA); assay: Field trial, % visual weed control; assay type: in vivo
# Description: as §7
# [19] = tested on: Sesbania exaltata (hemp sesbania, SEBEX); assay: Field trial, % visual weed control; assay type: in vivo; details: 8DAA, 800 g ae/ha alone
# Description: as §7
# [20] = tested on: Glycine max (soybean, glyphosate tolerant, GLXMA); assay: Field trial, % visual weed control; assay type: in vivo
# Description: as §7
structure (smiles),measurement,setting,value
"O=C(O)COc1ccc(Cl)cc1Cl [2,4-D-Choline, 2-hydroxy-N,N,N-trimethylethanaminium 2-(2,4-dichlorophenoxyl)acetate]",Mean % Weed Control,[1],0.0%
same,Mean % Weed Control,[2]; 100 g ae/ha alone,5.0%
same,Mean % Weed Control,[2]; 200 g ae/ha alone,61.7%
same,Mean % Weed Control,[2]; 400 g ae/ha alone,75.0%
same,Mean % Weed Control,[3],25.0%
same,Mean % Weed Control,[4]; 100 g ae/ha alone,28.3%
same,Mean % Weed Control,[4]; 200 g ae/ha alone,46.7%
same,Mean % Weed Control,[4]; 400 g ae/ha alone,73.3%
same,Mean % Weed Control,[4]; 800 g ae/ha alone,88.3%
same,Mean % Weed Control,"[5]; 10DAA, 360 g ae/ha alone",11.7%
same,Mean % Weed Control,"[5]; 10DAA, 720 g ae/ha alone",15%
same,Mean % Weed Control,"[5]; 14DAA, 800 g ae/ha alone",58.8%
same,Mean % Weed Control,"[5]; 15DAA, 360 g ae/ha alone",16.7%
same,Mean % Weed Control,"[5]; 15DAA, 720 g ae/ha alone",21.7%
same,Mean % Weed Control,"[5]; 21DAA, 800 g ae/ha alone",66.3%
same,Mean % Weed Control,"[5]; 28DAA, 800 g ae/ha alone",50.0%
same,Mean % Weed Control,"[5]; 31DAA, 360 g ae/ha alone",25%
same,Mean % Weed Control,"[5]; 31DAA, 720 g ae/ha alone",40%
same,Mean % Weed Control,[6],81.3%
same,Mean % Weed Control,"[7]; 6DAA, 720 g ae/ha alone",5.0%
same,Mean % Weed Control,"[7]; 6DAA, 1080 g ae/ha alone",5.0%
same,Mean % Weed Control,"[7]; 7DAA, 780 g ae/ha alone",5.0% and 12.5%
same,Mean % Weed Control,"[7]; 10DAA, 780 g ae/ha alone",46.3%
same,Mean % Weed Control,"[7]; 20DAA, 780 g ae/ha alone",34.5%
same,Mean % Weed Control,"[7]; 21DAA, 780 g ae/ha alone",38.8%
same,Mean % Weed Control,"[7]; 31DAA, 780 g ae/ha alone",53.8%
same,Mean % Weed Control,"[7]; 36DAA, 780 g ae/ha alone",27.5% and 17.5%
same,Mean % Weed Control,[8],12.5%
same,Mean % Weed Control,[9],98.0%
same,Mean % Weed Control,[10],7.5%
same,Mean % Weed Control,[11],80.0%
same,Mean % Weed Control,[12],65.0%
same,Mean % Weed Control,"[13]; 18DAA, 780 g ae/ha alone",37.5%
same,Mean % Weed Control,"[13]; 21DAA, 780 g ae/ha alone",63.8%
same,Mean % Weed Control,"[13]; 24DAA, 480 g ae/ha alone",30.0%
same,Mean % Weed Control,"[13]; 27DAA, 780 g ae/ha alone",67.5%
same,Mean % Weed Control,"[13]; 28DAA, 780 g ae/ha alone",68.8%
same,Mean % Weed Control,[14],80.0%
same,Mean % Weed Control,[15]; 12DAA,70.0%
same,Mean % Weed Control,[15]; 15DAA,68.8% and 66.3%
same,Mean % Weed Control,[15]; 18DAA,43.8%
same,Mean % Weed Control,[15]; 27DAA,66.3%
same,Mean % Weed Control,[15]; 28DAA,67.5%
same,Mean % Weed Control,[15]; 35DAA,70.0%
same,Mean % Weed Control,[16],80.0%
same,Mean % Weed Control,"[17]; 7DAA, 780 g ae/ha alone",13.8%
same,Mean % Weed Control,"[17]; 18DAA, 780 g ae/ha alone",36.3%
same,Mean % Weed Control,"[17]; 21DAA, 780 g ae/ha alone",0.0%
same,Mean % Weed Control,"[17]; 24DAA, 480 g ae/ha alone",21.7%
same,Mean % Weed Control,"[18]; 7DAA, 800 g ae/ha alone",47.5%
same,Mean % Weed Control,"[18]; 13DAA, 1065 g ae/ha alone",45.0%
same,Mean % Weed Control,"[18]; 21DAA, 1065 g ae/ha alone",38.8%
same,Mean % Weed Control,[19],32.5%
same,Mean % Weed Control,"[20]; 7DAA, 960 g ae/ha alone",50.0%
same,Mean % Weed Control,"[20]; 16DAA, 456 g ae/ha alone",48.8%
same,Mean % Weed Control,"[20]; 28DAA, 480 g ae/ha alone",58.8%
same,Mean % Weed Control,"[20]; 28DAA, 960 g ae/ha alone",67.5%
same,Mean % Weed Control,"[20]; 30DAA, 456 g ae/ha alone",60.0%
